Ends that are not written are not given here.
How the values were obtained:
survivin mRNA = assay: Real-time qPCR of survivin mRNA in C2C12 cells; format: cell-based, mouse; conditions: for survivin mRNA induction, in words / survivin mRNA induction compared to solvent control: C2C12 cells in low serum media, 20 μM peptide, 6 h
Method: Total RNA was extracted from cells using TRIzol (Invitrogen). Synthesis of cDNA was performed with 1 μg of total RNA at 50° C. for 50 min using oligo(dT) primers and reverse transcriptase (Superscript III; Invitrogen). Briefly, quantification of cDNA was performed in the LightCycler (Roche, Mannheim, Germany) using the DNA Master SYBR Green I kit (Roche) with the following cycling conditions: initial denaturation at 95° C. for 10 min, followed by 40 cycles at 95° C. for 10 s, 60° C. for 10 s, and 72° C. for 10 s and a 5-min terminal incubation at 72° C. The data were calculated with AACt. The expression was then normalized against the expression of glyceraldehyde-3-phosphate dehydrogenase (GAPDH). The PCR primers were mouse Survivin sense, 5′-[…]-3′ (SEQ ID NO: 27), anti-sense, 5′-[…]-3′ (SEQ ID NO: 28) (accession number: NM_001012273.1; PCR product: 136 bp); mouse GAPDH sense, 5′-[…]-3′ (SEQ ID NO: 29), anti-sense, 5′-[…]-3′ (SEQ ID NO: 30) (NM_001289726.1; 149 bp). For analysis rabbit inflammatory gene expression, The PCR primers were rabbit TNF-αsense, 5′-[…]-3′ (SEQ ID NO: 31), anti-sense, 5′-[…]-3′ (SEQ ID NO: 32) (accession number: NM 001082263.1); rabbit IL-1βsense, 5′-[…]-3′(SEQ ID NO: 33), anti-sense, 5′-[…]-3′ (SEQ ID NO: 34) (NM 001082201.1); rabbit GAPDH sense, 5′-[…]-3′ (SEQ ID NO: 35), anti-sense, 5′-[…]-3′ (SEQ ID NO: 36) (accession number:NM 001082253.1). The cycle threshold (Ct) values of the PCR product and a GAPDH (Glyceraldehyde 3-phosphate dehydrogenase) control mRNA were used to calculate relative quantities of mRNA.
Similar to the approach in Example 1.2.1, the expression level of survivin mRNA in C2C12 cells was used as an indicator for the function of the 6-mer variants in Tables 3 to 5. Briefly, C2C12 cells in low serum media were treated with 20 μM the 6-mer variants for 6 h. […] The results also confirmed that alanine substation at the glutamic acid (E) residues would severely impair the 6-mer activity.

[1] = system: Sprague-Dawley rats, retinal ischemia/reperfusion (I/R) injury; assay: TUNEL staining of I/R-injured rat retina (20 h); format: in vivo; conditions: for Number of TUNEL-positive cells in retina: subconjunctival injection 1 mM 4 h before I/R, 20 hours after I/R injury, Vehicle + I/R 27.2 ± 2.7; for I/R-induced retinal cell apoptosis (TUNEL staining), in words: subconjunctival injection prior to I/R, 20 h reperfusion
Method: Experimental procedures were approved by the Mackay Memorial Hospital Review Board (Taiwan, R.O.C.). All surgeries were performed under aseptic conditions. Adult 10-week-old male Sprague-Dawley rats (initial body weight=312±11 g) were anesthetized by an intraperitoneal injection of xylazine (10 mg/kg). Peptide was dissolved in 0.85% normal saline to 1 mM and delivered by the subconjunctival injection of 100 μL peptide through a 31-Gneedle with a micro-syringe before the induction of I/R. Normal saline was as a vehicle control. Rat I/R was performed after peptide or vehicle injection for 4 h. Pupils were dilated with 0.5% tropicamide and 0.5% phenylephrine. Body temperature was maintained at 37° C. using a heating blanket After dilation of the pupil, the anterior chamber of the right eye was cannulated with a 27-gauge needle connected to a physiological saline reservoir. The intraocular pressure (IOP) was raised to 110 mmHg by keeping the reservoir at 150 cm above the eye, and retinal ischemia was confirmed by observing whitening of the iris and the loss of the red reflex of the retina. After 90 min of ischemia, the cannulating needle was withdrawn and the IOP was returned to normal pressure, resulting in recovery of the blood supply from the retinal artery and reperfusion injury induced. The reperfusion was evident by the return of the red reflex. Corneal analgesia was achieved using 1 or 2 drops of 0.4% oxybuprocaine hydrochloride, and Ofloxacin ophthalmic gel (0.3%) was applied topically to the eye before and after the procedure. Only the right eye was used in all experiments. A sham procedure was performed at left eye served as an intra-animal control.
After I/R for 20 h, rats (n=6 in each group) were euthanized by an overdose of pentobarbital. Enucleated eyeballs were fixed in 4% PFA for 24 h at 4° C. Fixed retinal tissues were embedded in paraffin. To identify apoptosis of retinal cells, 5 μm sections thick cut through the optic disc, de-paraffinized, rehydrated, incubatedwith 20 μg/mL proteinase K for 10 min, and immunofluorescence staining of apoptotic cells was performed using a terminal deoxynucleotidyl transferase(TdT)-mediated dUTP nick-end labeling (TUNEL)-based kit (Roche Molecular Biochemicals, Indianapolis, IN) according to the manufacturer's instructions. Nuclei were located by counterstaining with Hoechst 33258 for 7 min Sections were observed under an epifluorescence microscope (Zeiss Axioplan 2 imaging; Zeiss, Oberkochen, Germany) equipped with a charge-coupled device (CCD) camera (Zeiss AxioCam HRm, Zeiss) (×400, 6 fields/sample), and quantification was performed using Axiovert software (Zeiss AxioVision Release 4.8.2, Zeiss). Three sections per eye were averaged and the mean of six eyes was recorded as the representative value for each group.
In this example, the neuroprotective effect of the 6-mer variant peptides on neural retina cells and retinal capillary system was investigated using a rat model of I/R injury described in the “Material and Methods” section. Briefly, 6-mer variant peptide (1 mM, 120 μl) was injected into the subconjunctival space of Sprague-Dawley rats for 4 h before the induction of I/R. Then, I/R injury was induced in rat retinas by increasing the intraocular pressure (IOP) in the eye to 110 mmHg for 90 min, followed by 20 h of reperfusion. Subsequently, the level of retinal cell apoptosis was evaluated using TUNEL staining. In addition, the retinal morphology was analyzed with H&E staining 14 days after the I/R injury. Results are summarized in FIGS. 6 to 10, and Tables 6 to 9.

| Molecule | survivin mRNA induction, in words (survivin mRNA) | survivin mRNA induction compared to solvent control (survivin mRNA) [fold] | other results |
| --- | --- | --- | --- |
| NH2-Ser-Leu-Gly-Ala-(D-Glu)-Gln-COOH (SLGAEQ; HELM PEPTIDE1{S.L.G.A.[dE].Q}$$$$V2.0; SMILES CC(C)C[C@H](NC(=O)[C@@H](N)CO)C(=O)NCC(=O)N[C@@H](C)C(=O)N[C@H](CCC(=O)O)C(=O)N[C@@H](CCC(N)=O)C(=O)O) [6-mer dE] | moderate induction on survivin mRNA level |  |  |
| NH2-Ser-Leu-Gly-Ala-Glu-(D-Gln)-COOH (SLGAEQ; HELM PEPTIDE1{S.L.G.A.E.[dQ]}$$$$V2.0; SMILES CC(C)C[C@H](NC(=O)[C@@H](N)CO)C(=O)NCC(=O)N[C@@H](C)C(=O)N[C@@H](CCC(=O)O)C(=O)N[C@H](CCC(N)=O)C(=O)O) [6-mer dQ] | hamper the survivin gene induction activity significantly |  |  |
| NH2-Ser-Leu-Gly-Gly-Glu-Gln-COOH (SLGGEQ; not fully specified (N-terminus, C-terminus); printed as NH2-Ser-Leu-Gly-Gly-Glu-Gln-COOH) [6-mer Ag] |  | 1.5 |  |
| NH2-Ser-Leu-Ala-Ala-Glu-Gln-COOH (SLAAEQ; not fully specified (N-terminus, C-terminus); printed as NH2-Ser-Leu-Ala-Ala-Glu-Gln-COOH) [6-mer Ga] |  | 1.6 |  |
| O=[N+]([O-])c1ccc2c(c1)S(=O)(=O)C=C2 [STAT3 inhibitor V, reference compound] |  |  | survivin mRNA expression induced by the 6-mer dS in cells pretreated with STAT3 inhibitor (survivin mRNA; C2C12 cells, 2.6-fold without inhibitor): 1.3 fold |
| NH2-Ser-(D-Leu)-Gly-Ala-Glu-Gln-COOH (SLGAEQ; HELM PEPTIDE1{S.[dL].G.A.E.Q}$$$$V2.0; SMILES CC(C)C[C@@H](NC(=O)[C@@H](N)CO)C(=O)NCC(=O)N[C@@H](C)C(=O)N[C@@H](CCC(=O)O)C(=O)N[C@@H](CCC(N)=O)C(=O)O) [6-mer dL] | hamper the survivin gene induction activity significantly |  |  |
| NH2-Ser-Leu-Gly-Ile-Glu-Gln-COOH (SLGIEQ; not fully specified (N-terminus, C-terminus); printed as NH2-Ser-Leu-Gly-Ile-Glu-Gln-COOH) [6-mer Ai] | severely impaired the survivin mRNA induction |  |  |
| NH2-Ser-Ala-Gly-Ala-Glu-Gln-COOH (SAGAEQ; not fully specified (N-terminus, C-terminus); printed as NH2-Ser-Ala-Gly-Ala-Glu-Gln-COOH) [6-mer La] |  | 1.5 |  |
| NH2-Ser-Leu-Gly-Ala-Glu-Asn-COOH (SLGAEN; not fully specified (N-terminus, C-terminus); printed as NH2-Ser-Leu-Gly-Ala-Glu-Asn-COOH) [6-mer Qn] |  | 2.1 | Number of TUNEL-positive cells in retina [1]: 12.5 ± 0.89 /200 μm; I/R-induced retinal cell apoptosis (TUNEL staining), in words [1]: reduced the retinal cell apoptosis induced by I/R |
| NH2-Ser-Leu-Gly-Ala-Asp-Gln-COOH (SLGADQ; not fully specified (N-terminus, C-terminus); printed as NH2-Ser-Leu-Gly-Ala-Asp-Gln-COOH) [6-mer Ed] | severely impaired the survivin mRNA induction |  |  |
| NH2-Ser-Leu-Gly-Ala-Glu-Ala-COOH (SLGAEA; not fully specified (N-terminus, C-terminus); printed as NH2-Ser-Leu-Gly-Ala-Glu-Ala-COOH) [6-mer Qa] |  | 1.6 |  |
| NH2-Ser-Leu-Gly-Ser-Glu-Gln-COOH (SLGSEQ; not fully specified (N-terminus, C-terminus); printed as NH2-Ser-Leu-Gly-Ser-Glu-Gln-COOH) [6-mer As] | severely impaired the survivin mRNA induction |  |  |
| NH2-Ser-Leu-Gly-Glu-Glu-Gln-COOH (SLGEEQ; not fully specified (N-terminus, C-terminus); printed as NH2-Ser-Leu-Gly-Glu-Glu-Gln-COOH) [6-mer Ae] |  | 1.5 |  |
| NH2-Ser-Leu-Asn-Ala-Glu-Gln-COOH (SLNAEQ; not fully specified (N-terminus, C-terminus); printed as NH2-Ser-Leu-Asn-Ala-Glu-Gln-COOH) [6-mer Gn] |  | 1.5 |  |
| NH2-Ser-Ile-Gly-Ala-Glu-Gln-COOH (SIGAEQ; not fully specified (N-terminus, C-terminus); printed as NH2-Ser-Ile-Gly-Ala-Glu-Gln-COOH) [6-mer Li] |  | 2.1 | Number of TUNEL-positive cells in retina [1]: 9.8 ± 1.4 /200 μm; I/R-induced retinal cell apoptosis (TUNEL staining), in words [1]: reduced the retinal cell apoptosis induced by I/R |

Reference: patent US12221494B2, “Short synthetic peptides and their uses for treating retinal degenerative diseases and/or tissue injuries” (MacKay Memorial Hospital, priority 2019, dated 2025)
